# Assay results: patent US20250339409A1, “USES OF PAN BET INHIBITORS” (VYNE THERAPEUTICS INC., priority 2021, published 2025)
# Where “and” joins values, the source holds several entries; their conditions need not be identical. Equal entries are not always repeated.
# System: bleomycin induced pulmonary fibrosis
# Assay: Bleomycin induced pulmonary fibrosis in mice, nebulized treatment: body weight, weight of whole lung, survival
# Type: in vivo
# Conditions: for Predicted (LS) mean diff., % Change Body Weight, Group 2 Bleo/Veh vs. BETi1 group: Baseline, Two Way ANOVA; for Predicted (LS) mean diff., % Change Body Weight, Group 2 Bleo/Veh vs. BETi1 group / Mean Diff., Weight of Whole lung, Group 2 Bleo/Veh vs. BETi1 group: Dunnett's; for Mean Diff., Weight of Whole lung, Group 2 Bleo/Veh vs. BETi1 group: One Way ANOVA; for % change in Body Weight Week 1 Compared to Baseline, mean / % change in Body Weight week 2 Compared to Baseline, mean / % change in Body Weight week 3 Compared to Baseline, Mean: group mean; for % change in Body Weight Week 1 Compared to Baseline / % change in Body Weight week 2 Compared to Baseline / % change in Body Weight week 3 Compared to Baseline: individual animals
# Method: Bleomycin, a […], which acts inter alia by induction of DNA strand breaks.
# The Bleomycin induced pulmonary fibrosis in a murine model is used to assess anti-fibrotic and/or anti-inflammatory properties of BETi1 formulations at three concentrations. Fifty C57BL/6 male mice aged 6 to 7 weeks and weighing between 25-30 grams are randomized into five treatment groups (10 mice each): (a) bleomycin induced mice treated with BETi1 at three concentrations (0.06 mg/mL, 0.6 mg/mL and 3 mg/mL); (b) bleomycin induced mice treated with vehicle (control for active) and (c) uninduced mice treated with vehicle (sham) (control for disease).
# To generate the morphological and functional aspects of PF, 50 uL bleomycin sulfate in saline per mouse is intranasally dosed on Day 0 (other than for group 1 sham receiving saline). The bleomycin IU conversion to enzyme units (U) is approximately 2 U/mg. For delivery of 4 U/kg in 50 μL, a solution of 2 U/ml (for 25 g mouse) is prepared in 0.9% NaCl.
# 5 ml of BETi1 solutions at 3 doses, or vehicle and bleomycin concomitantly are delivered once daily for 21 days with a nebulizer based aerosol delivery system (eFlow® rapid Nebuliser System) by inhalation for a period which allows the solutions to be nebulized and up to 2 hours per day. A sham group receives vehicle only. Body weights are recorded on days 1, 7, 14, and 21. Mortality and clinical observations are recorded daily.
# On day 21, mice are euthanized by cervical dislocation and the whole lung is dissected and weighed. The chest is wet with alcohol and large scissors are used to open the ribcage. The lungs are removed with fine scissors and forceps, rinsed with PBS and patted dry on gauze.
# Investigation of the anti-fibrotic properties of BETi1 composition against TGF-β mediated fibrosis was undertaken in a bleomycin induced murine model mimicking IPF in accordance with the protocol set out in Experimental Method R.
structure (smiles),measurement,setting,value
Cn1cc(-c2cccc(O)c2Oc2ccccc2)c2cc[nH]c2c1=O [BETi1],whole lung weight,"0.06 mg/mL and 0.6 mg/mL, vs bleomycin and vehicle",slight decrease in lung weight
same,Probability of Survival,"0.06 mg/mL inhaled, until day 20",50%
same,Probability of Survival,"0.6 mg/mL inhaled, until day 20",81.3%
same,Probability of Survival,"3 mg/mL inhaled, until day 20",76.5%
same,"Predicted (LS) mean diff., % Change Body Weight, Group 2 Bleo/Veh vs. BETi1 group",Group 3 Bleo/BETi1 0.06 mg/mL,0.0875%
same,"Predicted (LS) mean diff., % Change Body Weight, Group 2 Bleo/Veh vs. BETi1 group",Group 4 Bleo/BETi1 0.6 mg/mL,0.1750%
same,"Predicted (LS) mean diff., % Change Body Weight, Group 2 Bleo/Veh vs. BETi1 group",Group 5 Bleo/BETi1 3 mg/mL,0.1629%
same,"Mean 2 (group mean), Weight of Whole lung",Group 3 Bleo/BETi1 0.06 mg/mL,0.2695
same,"Weight of Whole lung, Mean",Group 3 Bleo/BETi1 0.06 mg/mL,0.27 grams
same,"Weight of Whole lung, individual animals",Group 3 Bleo/BETi1 0.06 mg/mL,0.32 grams and 0.28 grams and 0.25 grams and 0.27 grams (3×) and 0.30 grams and 0.19 grams
same,Probability of Survival,"Group 3 Bleo/BETi1 0.06 mg/mL, Day Elapsed 0",100%
same,Probability of Survival,"Group 3 Bleo/BETi1 0.06 mg/mL, Day Elapsed 8",93.75%
same,Probability of Survival,"Group 3 Bleo/BETi1 0.06 mg/mL, Day Elapsed 9",81.25%
same,Probability of Survival,"Group 3 Bleo/BETi1 0.06 mg/mL, Day Elapsed 10",75%
same,Probability of Survival,"Group 3 Bleo/BETi1 0.06 mg/mL, Day Elapsed 12",68.75%
same,Probability of Survival,"Group 3 Bleo/BETi1 0.06 mg/mL, Day Elapsed 14",62.5%
same,Probability of Survival,"Group 3 Bleo/BETi1 0.06 mg/mL, Day Elapsed 18",56.25%
same,Probability of Survival,"Group 3 Bleo/BETi1 0.06 mg/mL, Day Elapsed 19",50%
same,Probability of Survival,"Group 3 Bleo/BETi1 0.06 mg/mL, Day Elapsed 20",50%
same,"Mean Diff., Weight of Whole lung, Group 2 Bleo/Veh vs. BETi1 group",Group 3 Bleo/BETi1 0.06 mg/mL,0.01712
same,"% change in Body Weight Week 1 Compared to Baseline, mean",Group 3 Bleo/BETi1 0.06 mg/mL,−22.10%
same,"% change in Body Weight week 2 Compared to Baseline, mean",Group 3 Bleo/BETi1 0.06 mg/mL,−19.98%
same,"% change in Body Weight week 3 Compared to Baseline, Mean",Group 3 Bleo/BETi1 0.06 mg/mL,−8.83%
same,% change in Body Weight Week 1 Compared to Baseline,Group 3 Bleo/BETi1 0.06 mg/mL,−37.04% and −20.00% and −39.32% and −11.86% and −37.37% and −3.83% and −26.78% and −31.75% and −37.30% and −38.92% and −35.61% and −25.13% and −14.61% and −18.53% and −13.95% and −12.29%
same,% change in Body Weight week 2 Compared to Baseline,Group 3 Bleo/BETi1 0.06 mg/mL,−39.35% and −15.35% and −47.44% and −1.27% and −1.28% and −37.16% and −39.04% and −8.22% and −19.83% and −3.26% and −7.63%
same,% change in Body Weight week 3 Compared to Baseline,Group 3 Bleo/BETi1 0.06 mg/mL,−37.04% and −9.77% and −0.85% and −2.13% and −5.02% and −14.22% and 0.93% and −2.54%
same,"Mean 2 (group mean), Weight of Whole lung",Group 4 Bleo/BETi1 0.6 mg/mL,0.2681
same,"Weight of Whole lung, Mean",Group 4 Bleo/BETi1 0.6 mg/mL,0.27 grams
same,"Weight of Whole lung, individual animals",Group 4 Bleo/BETi1 0.6 mg/mL,0.13 grams and 0.31 grams and 0.29 grams and 0.32 grams and 0.37 grams and 0.27 grams and 0.20 grams (2×) and 0.33 grams and 0.34 grams (2×) and 0.18 grams and 0.21 grams
same,Probability of Survival,"Group 4 Bleo/BETi1 0.6 mg/mL, Day Elapsed 0",100%
same,Probability of Survival,"Group 4 Bleo/BETi1 0.6 mg/mL, Day Elapsed 10",87.5%
same,Probability of Survival,"Group 4 Bleo/BETi1 0.6 mg/mL, Day Elapsed 19",81.3%
same,Probability of Survival,"Group 4 Bleo/BETi1 0.6 mg/mL, Day Elapsed 20",81.3%
same,"Mean Diff., Weight of Whole lung, Group 2 Bleo/Veh vs. BETi1 group",Group 4 Bleo/BETi1 0.6 mg/mL,0.01849
same,"% change in Body Weight Week 1 Compared to Baseline, mean",Group 4 Bleo/BETi1 0.6 mg/mL,−21.76%
same,"% change in Body Weight week 2 Compared to Baseline, mean",Group 4 Bleo/BETi1 0.6 mg/mL,−17.12%
same,"% change in Body Weight week 3 Compared to Baseline, Mean",Group 4 Bleo/BETi1 0.6 mg/mL,−13.58%
same,% change in Body Weight Week 1 Compared to Baseline,Group 4 Bleo/BETi1 0.6 mg/mL,−10.00% and −30.77% and −22.17% and −31.64% and −20.93% and −27.01% and −24.89% and −31.19% and −5.26% and −14.75% and −23.22% and −25.78% and −4.72% and −10.36% and −31.41% and −8.41%
same,% change in Body Weight week 2 Compared to Baseline,Group 4 Bleo/BETi1 0.6 mg/mL,−8.00% and −33.52% and −16.04% and −27.44% and −32.70% and −21.78% and 0.96% and −18.89% and −16.11% and −23.11% and −0.47% and −0.90% and −39.27% and −2.34%
same,% change in Body Weight week 3 Compared to Baseline,Group 4 Bleo/BETi1 0.6 mg/mL,−7.50% and −34.62% and −7.55% and −27.91% and −34.12% and −12.89% and 2.39% and −6.45% and −14.69% and −19.56% and −3.30% and −9.91% and −0.47%
same,"Mean 2 (group mean), Weight of Whole lung",Group 5 Bleo/BETi1 3 mg/mL,0.2847
same,"Weight of Whole lung, Mean",Group 5 Bleo/BETi1 3 mg/mL,0.28 grams
same,"Weight of Whole lung, individual animals",Group 5 Bleo/BETi1 3 mg/mL,0.31 grams (2×) and 0.33 grams (2×) and 0.30 grams (2×) and 0.23 grams and 0.27 grams and 0.29 grams and 0.34 grams and 0.28 grams and 0.21 grams and 0.22 grams
same,Probability of Survival,"Group 5 Bleo/BETi1 3 mg/mL, Day Elapsed 0",100%
same,Probability of Survival,"Group 5 Bleo/BETi1 3 mg/mL, Day Elapsed 12",88.24%
same,Probability of Survival,"Group 5 Bleo/BETi1 3 mg/mL, Day Elapsed 19",76.5%
same,Probability of Survival,"Group 5 Bleo/BETi1 3 mg/mL, Day Elapsed 20",76.5%
